Results on two compounds are retold here after BindingDB's records for doi:10.1021/jm00039a019 (Zeria Pharmaceutical, 1994).

This assay concerns the target Prolyl endopeptidase (Canis familiaris). In words: In vitro inhibitory activity against purified prolyl endopeptidase (PEP) from canine brain.

As usually defined, the IC50 is the concentration that gives 50% inhibition. `O=C[C@@H]1CSCN1C(=O)[C@@H]1CSCN1C(=O)C[C@H]1CCc2ccccc2C1` [(R)-3-[(R)-3-((S)-2-1,2,3,4-Tetrahydro-naphthalen-2-yl-acetyl)-thiazolidine-4-carbonyl]-thiazolidine-4-carbaldehyde]: the half-inhibitory concentration (IC50) worked out at 0.85 nM.
In the case of `CC(C)c1ccc(C(=O)c2cccs2)c(SCCCCCCCCN(C)C)n1` [[2-(8-Dimethylamino-octylsulfanyl)-6-isopropyl-pyridin-3-yl]-thiophen-2-yl-methanone], the 50% inhibitory concentration (IC50) stood at 3500 nM.
